Here are results for three compounds from publication PMC11822212, “High-throughput screening identifies Aurora kinase B as a critical therapeutic target for Merkel cell carcinoma” (Nature Communications, 2025).

Like-named read-outs stand apart in the source and are kept apart here.

Assay in all cases: qHTS cell viability (CellTiter-Glo, 72 h; primary and follow-up small molecule screen)
What all share (format): cell-based, human
For orientation: qHTS replaces the single test concentration by a dilution series.

In assay [1] the test system is WAGA cells (VP-MCC).
Assay [2] deals with MCC13 cells (VN-MCC).
Assay [3] deals with UISO cells (VN-MCC).
The subject of assay [4] is MKL-1 cells (VP-MCC).
Assay [5] deals with MCC26 cells (VN-MCC).
Assay [6] has as its system MKL-2 cells (VP-MCC).
[7] abbreviates: follow-up screen, WAGA, replicate 1.
The mark [8] stands for this setting: follow-up screen, WAGA, replicate 2.
Setting [9] is: follow-up screen, WAGA, replicate 3.
[10] abbreviates: follow-up screen, MCC13, replicate 1.
Where [11] appears, read: follow-up screen, MCC13, replicate 2.
The mark [12] stands for this setting: follow-up screen, MCC13, replicate 3.
[13] abbreviates: follow-up screen, UISO, replicate 1.
Where [14] appears, read: follow-up screen, UISO, replicate 2.
Setting [15] is: follow-up screen, UISO, replicate 3.
The mark [16] stands for this setting: follow-up screen, MKL-1, replicate 1.
Setting [17] is: follow-up screen, MKL-1, replicate 2.
Where [18] appears, read: follow-up screen, MKL-1, replicate 3.
[19] abbreviates: follow-up screen, MCC26, replicate 1.
Where [20] appears, read: follow-up screen, MCC26, replicate 2.
Where [21] appears, read: follow-up screen, MCC26, replicate 3.
Setting [22] is: follow-up screen, MKL-2, replicate 1.
The mark [23] stands for this setting: follow-up screen, MKL-2, replicate 2.
Where [24] appears, read: follow-up screen, MKL-2, replicate 3.

Regarding `CO[C@H]1/C=C/O[C@@]2(C)Oc3c(C)c(O)c4c(O)c(c(/C=N/N5CCN(C6CCCC6)CC5)c(O)c4c3C2=O)NC(=O)/C(C)=C\C=C\[C@H](C)[C@H](O)[C@@H](C)[C@@H](O)[C@@H](C)[C@H](OC(C)=O)[C@@H]1C` [Rifapentine], in assay [1] (setting [7]), the “Area under the dose-response curve (AUC) WAGA Replicate 1” value (from here on “Area … (AUC) WAGA Replicate 1”) came to 525.4. Also, in assay [1] (setting [8]), the “Area under the dose-response curve (AUC) WAGA Replicate 2” value (from here on “Area … (AUC) WAGA Replicate 2”) was 514.7. Further, the “Area under the dose-response curve (AUC) WAGA Replicate 3” value (from here on “Area … (AUC) WAGA Replicate 3”) in assay [1] (setting [9]) was determined as 508.3. For the same compound, the “Area under the dose-response curve (AUC) MCC13 Replicate 1” value (from here on “Area … (AUC) MCC13 Replicate 1”) in assay [2] (setting [10]) is recorded as 505.1. Also, in assay [2] (setting [11]), the “Area under the dose-response curve (AUC) MCC13 Replicate 2” value (shortened to “Area … (AUC) MCC13 Replicate 2”) came out at 494.8. In assay [2] (setting [12]), the “Area under the dose-response curve (AUC) MCC13 Replicate 3” value (“Area … (AUC) MCC13 Replicate 3” below) is 490.8. Also, in assay [3] (setting [13]), the “Area under the dose-response curve (AUC) UISO Replicate 1” value (from here on “Area … (AUC) UISO Replicate 1”) is 475.3. For the same compound, the “Area under the dose-response curve (AUC) UISO Replicate 2” value (from here on “Area … (AUC) UISO Replicate 2”) in assay [3] (setting [14]) was determined as 482.1. Also, in assay [3] (setting [15]), the “Area under the dose-response curve (AUC) UISO Replicate 3” value (from here on “Area … (AUC) UISO Replicate 3”) was found to be 453.0. Moreover, the “Area under the dose-response curve (AUC) MKL-1 Replicate 1” value (from here on “Area … (AUC) MKL-1 Replicate 1”) in assay [4] (setting [16]) is recorded as 466.1. Also, in assay [4] (setting [17]), the “Area under the dose-response curve (AUC) MKL-1 Replicate 2” value (shortened to “Area … (AUC) MKL-1 Replicate 2”) is listed as 446.1. In addition, the “Area under the dose-response curve (AUC) MKL-1 Replicate 3” value (“Area … (AUC) MKL-1 Replicate 3” below) in assay [4] (setting [18]) was found to be 500.1. Moreover, the “Area under the dose-response curve (AUC) MCC26 Replicate 1” value (from here on “Area … (AUC) MCC26 Replicate 1”) in assay [5] (setting [19]) was determined as 454.9. Also, in assay [5] (setting [20]), the “Area under the dose-response curve (AUC) MCC26 Replicate 2” value (shortened to “Area … (AUC) MCC26 Replicate 2”) is given as 422.8. In assay [5] (setting [21]), the “Area under the dose-response curve (AUC) MCC26 Replicate 3” value (“Area … (AUC) MCC26 Replicate 3” below) is reported as 488.5. The “Area under the dose-response curve (AUC) MKL-2 Replicate 1” value (from here on “Area … (AUC) MKL-2 Replicate 1”) in assay [6] (setting [22]) came out at 477.3. Also, the “Area under the dose-response curve (AUC) MKL-2 Replicate 2” value (shortened to “Area … (AUC) MKL-2 Replicate 2”) in assay [6] (setting [23]) came to 488.3. Further, the “Area under the dose-response curve (AUC) MKL-2 Replicate 3” value (“Area … (AUC) MKL-2 Replicate 3” below) in assay [6] (setting [24]) is 494.1.

Regarding `CCc1c2c(nc3ccc(O)cc13)-c1cc3c(c(=O)n1C2)COC(=O)[C@]3(O)CC` [SN-38], in assay [1] (setting [7]), the “Area … (AUC) WAGA Replicate 1” value came to 143.8. Further, the “Area … (AUC) WAGA Replicate 2” value in assay [1] (setting [8]) stood at 150.1. Besides, the “Area … (AUC) WAGA Replicate 3” value in assay [1] (setting [9]) is recorded as 140.2. Moreover, in assay [2] (setting [10]), the “Area … (AUC) MCC13 Replicate 1” value was found to be 218.6. In assay [2] (setting [11]), the “Area … (AUC) MCC13 Replicate 2” value was 222.5. Also, in assay [2] (setting [12]), the “Area … (AUC) MCC13 Replicate 3” value was 261.5. In assay [3] (setting [13]), the “Area … (AUC) UISO Replicate 1” value stood at 127.3. Moreover, in assay [3] (setting [14]), the “Area … (AUC) UISO Replicate 2” value is reported as 148.1. Moreover, the “Area … (AUC) UISO Replicate 3” value in assay [3] (setting [15]) worked out at 144.2. Moreover, in assay [4] (setting [16]), the “Area … (AUC) MKL-1 Replicate 1” value stood at 135.7. The “Area … (AUC) MKL-1 Replicate 2” value in assay [4] (setting [17]) came out at 150.7. Also, the “Area … (AUC) MKL-1 Replicate 3” value in assay [4] (setting [18]) was found to be 162.0. Also, in assay [5] (setting [19]), the “Area … (AUC) MCC26 Replicate 1” value stood at 201.3. In assay [5] (setting [20]), the “Area … (AUC) MCC26 Replicate 2” value is 194.5. In addition, the “Area … (AUC) MCC26 Replicate 3” value in assay [5] (setting [21]) amounted to 189.1. The “Area … (AUC) MKL-2 Replicate 1” value in assay [6] (setting [22]) was found to be 131.4. Moreover, in assay [6] (setting [23]), the “Area … (AUC) MKL-2 Replicate 2” value is recorded as 119.7. In assay [6] (setting [24]), the “Area … (AUC) MKL-2 Replicate 3” value stood at 221.9.

Turning to `C[n+]1cc2c3c(ccc2c2ccc4cc5c(cc4c21)OCO5)OCO3` [Sanguinarine], in assay [1], the “Area … (AUC) WAGA Replicate 1” value amounted to 371.2, the “Area … (AUC) WAGA Replicate 2” value amounted to 384.9 and the “Area … (AUC) WAGA Replicate 3” value is 367.1. For the same compound, in assay [2], the “Area … (AUC) MCC13 Replicate 1” value was 361.4, the “Area … (AUC) MCC13 Replicate 2” value is 359.5 and the “Area … (AUC) MCC13 Replicate 3” value worked out at 378.6. In addition, in assay [3], the “Area … (AUC) UISO Replicate 1” value is 370.0, the “Area … (AUC) UISO Replicate 2” value amounted to 363.9 and the “Area … (AUC) UISO Replicate 3” value is 365.4. In assay [4], the “Area … (AUC) MKL-1 Replicate 1” value stood at 358.8, the “Area … (AUC) MKL-1 Replicate 2” value was 334.5 and the “Area … (AUC) MKL-1 Replicate 3” value is on record as 363.7. Besides, in assay [5], the “Area … (AUC) MCC26 Replicate 1” value stood at 339.9, the “Area … (AUC) MCC26 Replicate 2” value was 348.4 and the “Area … (AUC) MCC26 Replicate 3” value was 364.0. Moreover, in assay [6], the “Area … (AUC) MKL-2 Replicate 1” value was 328.8, the “Area … (AUC) MKL-2 Replicate 2” value turned out to be 346.3 and the “Area … (AUC) MKL-2 Replicate 3” value stood at 358.6.
